# Patent US6737383B1, “Herbicidal oxadiazolidines” (priority 1999, dated 2004)
# Key:
# [1] = tested on: bedstraw; assay: Test B pre/postemergence bedstraw; format: in vivo, Galium aparine; conditions: Postemergence
# Method in brief: (§1)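 Test chemicals in a non-phytotoxic solvent mixture with surfactant were sprayed preemergence onto planted seeds and postemergence onto plants 2 to 18 cm tall (1- to 4-leaf stage). After twelve to sixteen days in a greenhouse, injury was visually rated against untreated controls from 0 (no effect) to 10 (complete control).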
# [2] = tested on: blackgrass; assay: Test B pre/postemergence blackgrass; format: in vivo, Alopecurus myosuroides
# Method in brief: as §1
# [3] = tested on: surinam grass; assay: Test B pre/postemergence surinam grass; format: in vivo, Brachiaria decumbens
# Method in brief: as §1
# [4] = tested on: cocklebur; assay: Test B pre/postemergence cocklebur; format: in vivo, Xanthium strumarium
# Method in brief: as §1
# [5] = tested on: corn; assay: Test B pre/postemergence corn; format: in vivo, Zea mays
# Method in brief: as §1
# [6] = tested on: crabgrass; assay: Test B pre/postemergence crabgrass; format: in vivo, Digitaria sanguinalis
# Method in brief: as §1
# [7] = tested on: giant foxtail; assay: Test B pre/postemergence giant foxtail; format: in vivo, Setaria faberii
# Method in brief: as §1
# [8] = tested on: morningglory; assay: Test B pre/postemergence morningglory; format: in vivo, Ipomoea hederacea
# Method in brief: as §1
# [9] = tested on: pigweed; assay: Test B pre/postemergence pigweed; format: in vivo, Amaranthus retroflexus
# Method in brief: as §1
# [10] = tested on: rape; assay: Test B pre/postemergence rape; format: in vivo, Brassica napus
# Method in brief: as §1
# [11] = tested on: soybean; assay: Test B pre/postemergence soybean; format: in vivo, Glycine max
# Method in brief: as §1
# [12] = tested on: sugar beet; assay: Test B pre/postemergence sugar beet; format: in vivo, Beta vulgaris
# Method in brief: as §1
# [13] = tested on: velvetleaf; assay: Test B pre/postemergence velvetleaf; format: in vivo, Abutilon theophrasti
# Method in brief: as §1
# [14] = tested on: wheat; assay: Test B pre/postemergence wheat; format: in vivo, Triticum aestivum
# Method in brief: as §1
# [15] = tested on: wild oat; assay: Test B pre/postemergence wild oat; format: in vivo, Avena fatua
# Method in brief: as §1
# [16] = tested on: purple nutsedge; assay: Test B pre/postemergence purple nutsedge; format: in vivo, Cyperus rotundus
# Method in brief: as §1
# [17] = tested on: rice; assay: Test B flood test rice; format: in vivo, Oryza sativa
# Method in brief: (§2)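 Read-out is a visual response score from 0 (no effect) to 10 (complete control), assigned by comparison with untreated controls. Treatment was applied at the 2-leaf stage, and plants stayed in the greenhouse for twelve to sixteen days before scoring.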
# [18] = tested on: smallflower flatsedge; assay: Test B flood test smallflower flatsedge; format: in vivo, Cyperus difformis
# Method in brief: as §2
# [19] = tested on: duck salad; assay: Test B flood test duck salad; format: in vivo, Heteranthera limosa
# Method in brief: as §2
# [20] = tested on: bamyardgrass; assay: Test B flood test barnyardgrass; format: in vivo, Echinochloa crus-galli
# Method in brief: as §2
# [21] = Postemergence, Rate 62 g/ha, scale 0 to 10, 0 is no effect, 10 is complete control
# [22] = Postemergence, Rate 125 g/ha, scale of 0 to 10 where 0 is no effect and 10 is complete control
# [23] = Postemergence, Rate 250 g/ha, scale of 0 to 10, 0 is no effect, 10 is complete control
# [24] = Postemergence, Rate 500 g/ha, scale of 0 to 10 where 0 is no effect and 10 is complete control
# [25] = Preemergence, Rate 62 g/ha, scale 0 to 10 (0 no effect, 10 complete control)
# [26] = Preemergence, Rate 125 g/ha, scale of 0 to 10 where 0 is no effect and 10 is complete control
# [27] = Preemergence, Rate 500 g/ha, scale of 0 to 10 where 0 is no effect and 10 is complete control
# [28] = Rate 62 g/ha, flood test species, Pre-emergence, visual evaluation after twelve to sixteen days
# [29] = Rate 125 g/ha, under heading Pre-emergence, flood test species, visual evaluation after twelve to sixteen days
# [30] = Rate 250 g/ha, Pre-emergence (flood test species), scale 0 to 10, 0 is no effect, 10 is complete control
# [31] = Rate 500 g/ha, Pre-emergence section of Table B, 0 to 10 scale (0 no effect, 10 complete control)
structure (smiles),measurement,setting,value
C=C(C)Cn1c(=O)on(C(=O)N(c2ccccc2)C(C)C)c1=O [Compound 607],"Plant response rating, Bedstraw","[1]; Rate 62 g/ha, scale 0 to 10, 0 is no effect, 10 is complete control",0
same,"Plant response rating, Bedstraw","[1]; Rate 125 g/ha, scale of 0 to 10 where 0 is no effect and 10 is complete control",0
same,"Plant response rating, Blackgrass",[2]; [21],0
same,"Plant response rating, Blackgrass",[2]; [22],4
same,Blackgrass plant response rating,[2]; [23],6
same,"Plant response rating, Blackgrass",[2]; [24],7
same,Blackgrass plant response rating,[2]; [25],4
same,Blackgrass plant response rating,[2]; [26],7
same,Blackgrass plant response rating (0 to 10 scale),"[2]; Preemergence, Rate 250 g/ha",8
same,Blackgrass plant response rating,[2]; [27],9
same,"Plant response rating, B. signalgrass",[3]; [21],0
same,"Plant response rating, B. signalgrass",[3]; [22],0
same,B. signalgrass plant response rating,[3]; [23],4
same,"Plant response rating, B. signalgrass",[3]; [24],7
same,B. signalgrass plant response rating,[3]; [25],4
same,B. signalgrass plant response rating,[3]; [26],7
same,"B. signalgrass plant response rating (0 to 10 scale, 0 is no effect, 10 is complete control)","[3]; Preemergence, Rate 250 g/ha",8
same,B. signalgrass plant response rating,[3]; [27],8
same,"Plant response rating, Cocklebur",[4]; [21],0
same,"Plant response rating, Cocklebur",[4]; [22],0
same,Cocklebur plant response rating,[4]; [23],0
same,"Plant response rating, Cocklebur",[4]; [24],0
same,Cocklebur plant response rating,[4]; [25],0
same,Cocklebur plant response rating,[4]; [26],0
same,Cocklebur plant response rating (0 to 10 scale),"[4]; Preemergence, Rate 250 g/ha",0
same,"Plant response rating, Cocklebur",[4]; [27],0
same,"Plant response rating, Corn",[5]; [21],0
same,"Plant response rating, Corn",[5]; [22],0
same,Corn plant response rating,[5]; [23],0
same,"Plant response rating, Corn",[5]; [24],2
same,Corn plant response rating,[5]; [25],0
same,Corn plant response rating,[5]; [26],0
same,Corn plant response rating (0 to 10 scale),"[5]; Preemergence, Rate 250 g/ha",0
same,"Plant response rating, Corn",[5]; [27],6
same,"Plant response rating, Crabgrass",[6]; [21],5
same,Crabgrass plant response rating,[6]; [23],8
same,"Plant response rating, Crabgrass",[6]; [24],9
same,Crabgrass plant response rating,[6]; [25],7
same,Crabgrass plant response rating,[6]; [26],8
same,"Plant response rating, Crabgrass",[6]; [27],9
same,"Plant response rating, Giant foxtail",[7]; [21],6
same,"Plant response rating, Giant foxtail",[7]; [22],6
same,Giant foxtail plant response rating,[7]; [23],7
same,"Plant response rating, Giant foxtail",[7]; [24],9
same,Giant foxtail plant response rating,[7]; [25],9
same,Giant foxtail plant response rating,[7]; [26],10
same,"Plant response rating, Giant foxtail",[7]; [27],10
same,"Plant response rating, Morningglory",[8]; [21],6
same,"Plant response rating, Morningglory",[8]; [22],8
same,Morningglory plant response rating,[8]; [23],8
same,"Plant response rating, Morningglory",[8]; [24],10
same,Morningglory plant response rating,[8]; [25],0
same,Morningglory plant response rating,[8]; [26],0
same,"Plant response rating, Morningglory",[8]; [27],0
same,"Plant response rating, Redroot pigweed",[9]; [21],0
same,"Plant response rating, Redroot pigweed",[9]; [22],0
same,Redroot pigweed plant response rating,[9]; [23],0
same,"Plant response rating, Redroot pigweed",[9]; [24],5
same,Redroot pigweed plant response rating,[9]; [25],4
same,Redroot pigweed plant response rating,[9]; [26],7
same,"Plant response rating, Redroot pigweed",[9]; [27],10
same,"Plant response rating, Rape",[10]; [21],0
same,"Plant response rating, Rape",[10]; [22],0
same,Rape plant response rating,[10]; [23],0
same,"Plant response rating, Rape",[10]; [24],0
same,Rape plant response rating,[10]; [25],0
same,Rape plant response rating,[10]; [26],6
same,"Plant response rating, Rape",[10]; [27],7
same,"Plant response rating, Soybean",[11]; [21],3
same,"Plant response rating, Soybean",[11]; [22],4
same,Soybean plant response rating,[11]; [23],6
same,Soybean plant response rating,[11]; [25],0
same,Soybean plant response rating,[11]; [26],0
same,"Plant response rating, Soybean",[11]; [27],4
same,"Plant response rating, Sugarbeets",[12]; [21],0
same,"Plant response rating, Sugarbeets",[12]; [22],0
same,Sugarbeets plant response rating,[12]; [23],0
same,"Plant response rating, Sugarbeets",[12]; [24],0
same,Sugarbeets plant response rating,[12]; [25],0
same,Sugarbeets plant response rating,[12]; [26],0
same,"Plant response rating, Sugarbeets",[12]; [27],5
same,"Plant response rating, Velvetleaf",[13]; [21],0
same,"Plant response rating, Velvetleaf",[13]; [22],0
same,Velvetleaf plant response rating,[13]; [23],3
same,"Plant response rating, Velvetleaf",[13]; [24],5
same,Velvetleaf plant response rating,[13]; [25],0
same,Velvetleaf plant response rating,[13]; [26],3
same,"Plant response rating, Velvetleaf",[13]; [27],8
same,"Plant response rating, Wheat",[14]; [21],0
same,"Plant response rating, Wheat",[14]; [22],0
same,Wheat plant response rating,[14]; [23],2
same,"Plant response rating, Wheat",[14]; [24],4
same,Wheat plant response rating,[14]; [25],0
same,Wheat plant response rating,[14]; [26],0
same,"Plant response rating, Wheat",[14]; [27],3
same,"Plant response rating, Wild oats",[15]; [21],0
same,"Plant response rating, Wild oats",[15]; [22],0
same,Wild oats plant response rating,[15]; [23],0
same,"Plant response rating, Wild oats",[15]; [24],4
same,Wild oats plant response rating,[15]; [25],0
same,Wild oats plant response rating,[15]; [26],2
same,"Plant response rating, Wild oats",[15]; [27],6
same,"Plant response rating, Nutsedge",[16]; [21],0
same,"Plant response rating, Nutsedge",[16]; [22],0
same,Nutsedge plant response rating,[16]; [23],0
same,"Plant response rating, Nutsedge",[16]; [24],7
same,Nutsedge plant response rating,[16]; [26],0
same,"Plant response rating, Nutsedge",[16]; [27],0
same,"Plant response rating, Rice (0 to 10 scale, 0 is no effect, 10 is complete control)",[17]; [28],0
same,"Rice plant response rating (0 to 10 scale, 0 is no effect, 10 is complete control)",[17]; [29],0
same,Rice plant response rating,[17]; [30],0
same,Rice plant response rating,[17]; [31],0
same,"Plant response rating, S. Flatsedge (0 to 10 scale, 0 is no effect, 10 is complete control)",[18]; [28],0
same,"S. Flatsedge plant response rating (0 to 10 scale, 0 is no effect, 10 is complete control)",[18]; [29],0
same,S. Flatsedge plant response rating,[18]; [30],0
same,S. Flatsedge plant response rating,[18]; [31],0
same,"Plant response rating, Ducksalad (0 to 10 scale, 0 is no effect, 10 is complete control)",[19]; [28],0
same,"Ducksalad plant response rating (0 to 10 scale, 0 is no effect, 10 is complete control)",[19]; [29],0
same,Ducksalad plant response rating,[19]; [30],0
same,Ducksalad plant response rating,[19]; [31],0
same,"Plant response rating, Barnyardgrass (0 to 10 scale, 0 is no effect, 10 is complete control)",[20]; [28],0
same,"Barnyardgrass plant response rating (0 to 10 scale, 0 is no effect, 10 is complete control)",[20]; [29],0
same,Barnyardgrass plant response rating,[20]; [30],0
same,Barnyardgrass plant response rating,[20]; [31],0
